# Reference: patent US6528309B2, “Vacuum-mediated desiccation protection of cells” (The Regents of the University of California, priority 2001, dated 2003)
# Read-outs that look alike come from different tables or passages of the source.
# What was measured:
# [1] = tested on: Basinger human fibroblasts; assay: Drying tolerance of Basinger human fibroblasts with disaccharides and polyols (trypan blue exclusion); format: cell-based; conditions: for Cell Culture Survival (%): concentration (50 mM or 10% solution), vacuum; for effectiveness in protecting the viability of the cells (in words): trypan blue exclusion
# Protocol: (§1) Trypan blue exclusion was done by adding 10 μl of 0.4% trypan blue in 0.85% NaCl (Gibco BRL) to 10 μl of a single cell suspension of trypsinized cells and counting the number of trypan blue positive and negative cells. Colony assays were done by harvesting adherent cells 8-12 hours after rehydration, counting by hemacytometer, and plating either 200 or 300 cells in a 10 cm tissue culture dish. The same number of cells from a non-desiccated control were plated in parallel. Approximately 1 week later, the plates were stained with Giemsa and the colonies were counted.
# 12F cells [2] = assay: Desiccation tolerance of 12F cells at different storage temperatures, with trehalose (trypan blue exclusion / FACS); format: cell-based, human; conditions: for Cell Survival: trehalose 50 mM by thermal shock, dried under vacuum
# Protocol: as §1
# For thermal shock experiments, trehalose solution (50 mM final concentration) in DMEM and 10% FBS, was added to a pellet of 1×10^6 cells to produce a cell suspension which was then incubated on ice for 5 minutes, and then for 10 minutes in a 37° C. water bath (Daw et al., Cryobiol., 10:126-133 [1973]; and Moore et al., Cell 54:777-785 [1988]). This cycle was repeated twice. For adherent cells, the cells were plated in 6-well plates and grown to 90-95% confluence prior to thermal shock with 50 mM trehalose as described above. These methods are described in more detail in the following Examples. However, it is not intended that the present invention be limited to any particular temperatures used for thermal shock, as it is known in the art that in some cases, cells can be shocked using different temperatures.
# In these experiments, the effects of temperature and drying on cell survival were investigated. In addition, the effects of the presence of trehalose on cell survival under different conditions of temperature and drying were investigated. Ten 6-well plates of 12F cells were prepared at about 90-95 confluence. The day prior to the beginning of the drying period, five plates were exposed to thermal shock to introduce trehalose into the cells (as described above). On the first day of the drying period, all of the plates were dried, and the plates were incubated in pairs (i.e., one with trehalose and one without trehalose) at −70° C., −20° C., room temperature, and 37° C., for 4 days.
# In additional experiments to determine the effect of temperature on the ability of cells to withstand desiccation, 6-well plates with 12F cells were prepared at approximately 90% confluence, dried under vacuum at room temperature as described above, and stored at −70° C., −20° C., 4° C., 20° C., and 37° C. for 3 days. In these experiments, two plates were used, one included trehalose (50 mM) introduced into the cells using thermal shock, as described above. […] The cells were then rehydrated and the viability was determined by trypan blue exclusion. […] The optimum survival temperature was determined to be about 20° C. (i.e., approximately room temperature). At the other temperatures examined, there were almost no viable cells remaining, as determined by trypan blue exclusion, and none were able to grow and form colonies (results not shown). In these experiments, the presence (“Tre(+)”)/absence (“Tre(−)”) of trehalose appeared to have no impact on the optimum temperature.
# No colonies were ever grown from cells maintained in the desiccated state at temperatures other than approximately 20° C.
# Adherent Basinger cells = assay: Trehalose dose response for desiccation tolerance and cytotoxicity; format: cell-based, human; conditions: 24 hours incubation
# Protocol: In these experiments, the effects of trehalose concentration on desiccation tolerance were determined. Adherent Basinger cells were prepared in 6-well plates, and incubated at 37° C., with 10% CO2. When the cells reached 65-70% confluence, the cells were incubated with varying concentrations of trehalose (10 mM, 25 mM, 50 mM, 150 mM, and 500 mM) for 24 hours. The cells were exposed to thermal shock and desiccated as described above.
# 12F cells [3] = assay: Effect of trehalose and vacuum on desiccation tolerance of 12F cells; format: cell-based, human; conditions: trehalose 50 mM, three days dried
# Protocol: In this Example, experiments conducted to determine the effect of trehalose and vacuum on desiccation tolerance of 12F cells are described. The 12F cells were prepared at 95% confluence in five 6-well plates. On plates 1 (V+T+) and 3 (V−T+), trehalose (50 mM final concentration) was introduced by thermal shock, as described in above. Medium was then removed from each of the wells, and Plates 1 (V+T+) and 2 (V+T−) were vacuum sealed using the Magic Vac vacuum packaging system (Flaem Nuova) and maintained at room temperature. Plates 3 and 4 were sealed in bags without vacuum and also maintained at room temperature. Three days later, medium (DMEM) was added to the plates, and the plates incubated at 37° C. with 10% CO2 overnight. The next day, the cells were harvested and stained with trypan blue in order to determine the dead/live ratio.
# In some experiments, the samples were divided. One portion of the sample was used in the analysis of live/dead cells using trypan blue, as described above, and the second portion was plated into fresh culture media at 25× dilution and incubated until cells grew in the culture. This allowed counting of the live cells based on their “plating efficiency.” This was considered to be the best way to estimate the ratio of dead to alive cells.
# Basinger cells = assay: Colony (plating efficiency) assay after desiccation and rehydration; format: cell-based, human; conditions: for ability to mediate desiccation tolerance, singly and together (in words): 3% glycerol and/or 50 mM trehalose, thermal shock, vacuum (FIG. 8); for ability of the cells to form colonies following rehydration: results not shown
# Protocol: as §1
# To definitively determine the effect of different desiccation protocols, an assay based on colony formation (i.e., “plating efficiency”) was used, as described in the following Examples. In this assay, rehydrated cells were replated at low density and the number of distinct colonies counted. In this way, only rehydrated cells able to undergo cell division were counted as “viable.” The pattern of viability determined by trypan blue exclusion and colony assay were the same (e.g., compare FIG. 2A with FIG. 2B), validating the use of trypan blue to measure the effect of various treatments on cell viability.
# In subsequent experiments, trehalose was tested in combination with glycogen, glycerol, and sucrose. As for some anhydrobiotic organisms (e.g., Artemia cysts) glycerol accounts for about 4% of their dry weight and trehalose constitutes up to about 14% of their dry weight, these experiments were conducted to determine the effects of these compounds on cell survival. In this Figure, results are shown for Basinger cells plated in 6-well plates and exposed to 3% glycerol and/or 50 mM trehalose immediately prior to undergoing thermal shock and desiccation under vacuum. After the drying period was complete, media were added and the cells were incubated overnight. The following day, the cells were harvested and plated for viability determination using the colony assay described herein.
# [4] = tested on: Basinger human fibroblasts; assay: Cell survival after drying with trehalose combinations and trehalose alone; format: cell-based
# Protocol: In this Example, experiments to observe the effects of various combinations of sugars on cell viability are described. The results obtained for these combinations were then compared with the results obtained for trehalose alone. The combinations used were trehalose with glycerol, and trehalose with mannitol. Controls were also tested with no sugars, and trehalose alone. In these experiments Basinger human fibroblasts were used.
# 12F cells [5] = assay: Preliminary vacuum drying experiments; format: cell-based
# 12F and Basinger cells = conditions: human
# [6] = tested on: Basinger fibroblast cells; assay: Cytotoxicity of carbohydrates and polyols (maximum usable concentration)
# Protocol: To determine whether any of these molecules have properties that would allow them to substitute for trehalose in promoting desiccation tolerance in mammalian cells, a number of carbohydrates and polyols were systematically studied. Each was tested initially to determine the maximum concentration at which they could be used without causing cytotoxicity. The ability of the different molecules to mediate desiccation tolerance was then tested at the optimal concentration for each.
# Thus, in these experiments, Basinger fibroblast cells were tested in long term desiccation experiments (i.e., longer than 5 days of drying). In these experiments, Basinger cells at approximately 75% confluence were exposed to a polyol or disaccharide for 12 hours prior to removal of medium and desiccation under vacuum. Thermal shock was used to introduce the disaccharides or polyols into the cells to produce equal concentrations final of 50 mM in the cultures (with equal numbers of cells). […] FIG. 7 also provides a graphic representation of the results for various test disaccharides and polyols.
Compound,Cell Culture Survival (%) ([1]; Day 3 of drying),Cell Culture Survival (%) ([1]; Day 4 of drying),Cell Culture Survival (%) ([1]; Day 5 of drying),Cell Culture Survival (%) ([1]; Day 6 of drying),effectiveness in protecting the viability of the cells (in words) [1],other results
OC[C@H]1O[C@H](O[C@H]2[C@H](O)[C@@H](O)C(O)O[C@@H]2CO)[C@H](O)[C@@H](O)[C@@H]1O (mixture of isomers) [Maltose],31,17,4.2,2.5,,
OC[C@@H](O)[C@@H](O)[C@H](O)[C@H](O)CO [Mannitol],32,11,3.1,5.4,,
OC[C@@H](O)[C@@H](O)[C@H](O)[C@@H](O)CO [Sorbitol],29,8,3.1,0.8,,
OC[C@H]1O[C@@](CO)(O[C@H]2O[C@H](CO)[C@@H](O)[C@H](O)[C@H]2O)[C@@H](O)[C@@H]1O [Sucrose],39,28,9.1,7.2,as effective as trehalose,
"OC[C@H]1O[C@H](O[C@H]2O[C@H](CO)[C@@H](O)[C@H](O)[C@H]2O)[C@H](O)[C@@H](O)[C@@H]1O [Trehalose, D (+) trehalose dihydrate]",45,38,12,10.5,,"cells appearing to be ""live"" (FACS) (12F cells [2]; dried in the presence of trehalose, incubated at −70° C., no growth upon plating): about 4%; survival rate (in words) (12F cells [2]; incubated at room temperature in the presence of trehalose): very high; Cell Survival (12F cells [2]; storage at RT (room temperature)): 34%; Cell Survival (12F cells [2]; storage temperature 4° C.): 2.8%; Cell Survival (12F cells [2]; storage temperature 37° C.): 0.4%; Cell Survival (12F cells [2]; storage temperature −20° C.): 0.7%; Cell Survival (12F cells [2]; storage temperature −70° C.): 4%; trehalose concentration resulting in obvious cytotoxicity (Adherent Basinger cells): above 150 mM; optimal concentration of trehalose for desiccation tolerance (Adherent Basinger cells; thermal shock, desiccation, 10-500 mM tested): 50 mM; survival rate compared to the controls (in words) (12F cells [3]): much higher survival rate; ability to mediate desiccation tolerance, singly and together (in words) (Basinger cells): roughly similar; ability of the cells to form colonies following rehydration (Basinger cells): able to maintain cellular viability; Cell Survival ([4]; Day 3): 7.5; Cell Survival ([4]; Day 4): 0.8; Cell Survival ([4]; Day 5): 2.2; Cell Survival ([4]; Day 6): 1.5; trehalose concentration at which cytotoxic effects were observed (12F cells [5]): more than 50 mM"
OCC(O)CO [glycerol],2.6,4.8,0.7,3.1,,"ability to mediate desiccation tolerance, singly and together (in words) (Basinger cells): roughly similar; ability of the cells to form colonies following rehydration (Basinger cells): able to maintain cellular viability; concentration toxic for cells (12F and Basinger cells): above 5%; optimum concentration [6]: 3%; concentration with long-term cytotoxic effect ([6]; human): above 4%; concentration found to be toxic (very low survival, no growth upon passage) ([6]; human, 12 h): ≥ 5%"
Dextran,0.9,2.4,1.7,0.8,completely ineffective,"concentration found to be toxic (very low survival, no growth upon passage) [6]: ≥ 5%"
Glycogen,40.6,21.5,14,9.5,almost equally as effective,
